Legend:
MOLT-4 = test: Cell viability assay (tetrazolium-based MTS) in MOLT4 cells; conditions: 48 h incubation
Procedure: Cancer cells from acute lymphoblastic leukemia (MOLT4) were incubated with increasing concentrations of compounds of Examples 1-9 for 48 h. Cell viability was measured by tetrazolium-based MTS assay. 5×10^4 to 1×10^5 suspension cells or 3×10^3 to 5×10^3 adherent cells were seeded and treated in 96-well plates for 48 h. The EC50 values of individual agents were calculated with GraphPad Prism.

MOLT4 cells = test: Protein degradation assay in MOLT4 cells (western blot); format: cell-based; conditions: MOLT4 cells incubated with various concentrations; the FIGURE
Procedure: MOLT4 cells and human platelets can be incubated with increasing concentrations of test compounds for 16 h. The cells can be harvested and lysed in RIPA lysis buffer supplemented with protease and phosphatase inhibitor cocktails. An equal amount of protein (20 μg/lane) can be resolved on a pre-cast 4-20% SDS-PAGE gel. Proteins can be subsequently transferred to NOVEX PVDF membranes by electrophoresis. The membranes can be blocked in blocking buffer (5% non-fat dry milk in TBS-T), and can be incubated with primary antibodies (at optimized concentrations) overnight at 4° C. After washing in TBS-T, the membranes can be incubated with an appropriate HRP-conjugated secondary antibody for 1 h at room temperature. After extensive washing, the proteins of interest can be detected with ECL western blotting detection reagents and recorded with autoradiography (Pierce Biotech, Rockford, IL, USA). The primary antibodies for Bcl-xL (Cat #2762), Bcl-2 (Cat #2872), Mcl-1 (Cat #5453) and β-actin (Cat #4970) can be purchased from Cell Signaling technology. The relative band intensity can be measured using ImageJ software and normalized to b-actin. The DC50 (concentration with 50% degradation) can be calculated using GraphPad Prism.

[1] = MOLT4 acute lymphoblastic leukemia cells

SMILES	EC50 (MOLT-4; Homo sapiens, MOLT-4, MOLT4 acute lymphoblastic leukemia cells)	EC50 (MOLT-4; [1])	protein degradation (western blot) (MOLT4 cells)
Cc1c(-c2ccc(N3CCc4cccc(C(=O)Nc5nc6ccccc6s5)c4C3)nc2C(=O)NCCOCCOCCOCCNc2cccc3c2C(=O)N(C2CCC(=O)NC2=O)C3=O)cnn1CC12CC3CC(CC(C3)C1)C2 (stereo not shown) [degrader #8, 2-(5-(1-(adamantan-1-ylmethyl)-5-methyl-1H-pyrazol-4-yl)-6-((2-(2-(2-(2-((2-(2,6-dioxopiperidin-3-yl)-1,3-dioxoisoindolin-4-yl)amino)ethoxy)ethoxy)ethoxy)ethyl)carbamoyl)pyridin-2-yl)-N-(benzo[d]thiazol-2-yl)-1,2,3,4-tetrahydroisoquinoline-8-carboxamide]	< 10 nM	–	protein degradation
Cc1ncsc1-c1ccc([C@H](C)NC(=O)[C@@H]2C[C@@H](O)CN2C(=O)[C@@H](NC(=O)CCNC(=O)C23CC4CC(CC(Cn5ncc(-c6ccc(N7CCc8cccc(C(=O)Nc9nc%10ccccc%10s9)c8C7)nc6C(=O)O)c5C)(C4)C2)C3)C(C)(C)C)cc1 [degrader #41, 6-(8-(benzo[d]thiazol-2-ylcarbamoyl)-3,4-dihydroisoquinolin-2(1H)-yl)-3-(1-(((1S,3r)-3-((3-(((S)-1-((2S,4R)-4-hydroxy-2-(((S)-1-(4-(4-methylthiazol-5-yl)phenyl)ethyl)carbamoyl)pyrrolidin-1-yl)-3,3-dimethyl-1-oxobutan-2-yl)amino)-3-oxopropyl)carbamoyl)adamantan-1-yl)methyl)-5-methyl-1H-pyrazol-4-yl)picolinic acid]	–	> 1000 nM	–
Cc1ncsc1-c1ccc([C@H](C)NC(=O)[C@@H]2C[C@@H](O)CN2C(=O)[C@@H](NC(=O)CCCCNC(=O)C23CC4CC(CC(Cn5ncc(-c6ccc(N7CCc8cccc(C(=O)Nc9nc%10ccccc%10s9)c8C7)nc6C(=O)O)c5C)(C4)C2)C3)C(C)(C)C)cc1 [degrader #42, 6-(8-(benzo[d]thiazol-2-ylcarbamoyl)-3,4-dihydroisoquinolin-2(1H)-yl)-3-(1-(((1S,3r)-3-((5-(((S)-1-((2S,4R)-4-hydroxy-2-(((S)-1-(4-(4-methylthiazol-5-yl)phenyl)ethyl)carbamoyl)pyrrolidin-1-yl)-3,3-dimethyl-1-oxobutan-2-yl)amino)-5-oxopentyl)carbamoyl)adamantan-1-yl)methyl)-5-methyl-1H-pyrazol-4-yl)picolinic acid]	–	> 1000 nM	–

More lines, main results first:

EC50 (MOLT-4; Homo sapiens, MOLT-4, MOLT4 acute lymphoblastic leukemia cells)	EC50 (MOLT-4; [1])	SMILES	protein degradation (western blot) (MOLT4 cells)
–	10 to 100 nM	Cc1c(-c2ccc(N3CCc4cccc(C(=O)Nc5nc6ccccc6s5)c4C3)nc2C(=O)O)cnn1CC12CC3CC(C1)CC(C(=O)NCCOCCNc1cccc4c1C(=O)N(C1CCC(=O)NC1=O)C4=O)(C3)C2 (stereo not shown) [degrader #39, 6-(8-(benzo[d]thiazol-2-ylcarbamoyl)-3,4-dihydroisoquinolin-2(1H)-yl)-3-(1-(((1r,3r)-3-((2-(2-((2-(2,6-dioxopiperidin-3-yl)-1,3-dioxoisoindolin-4-yl)amino)ethoxy)ethyl)carbamoyl)adamantan-1-yl)methyl)-5-methyl-1H-pyrazol-4-yl)picolinic acid]	–
–	10 to 100 nM	Cc1c(-c2ccc(N3CCc4cccc(C(=O)Nc5nc6ccccc6s5)c4C3)nc2C(=O)O)cnn1CC12CC3CC(C1)CC(C(=O)NCCOCCOCCOCCNc1cccc4c1C(=O)N(C1CCC(=O)NC1=O)C4=O)(C3)C2 (stereo not shown) [degrader #40, 6-(8-(benzo[d]thiazol-2-ylcarbamoyl)-3,4-dihydroisoquinolin-2(1H)-yl)-3-(1-(((1r,3r)-3-((2-(2-(2-(2-((2-(2,6-dioxopiperidin-3-yl)-1,3-dioxoisoindolin-4-yl)amino)ethoxy)ethoxy)ethoxy)ethyl)carbamoyl)adamantan-1-yl)methyl)-5-methyl-1H-pyrazol-4-yl)picolinic acid]	–
–	100 to 1000 nM	Cc1ncsc1-c1ccc([C@H](C)NC(=O)[C@@H]2C[C@@H](O)CN2C(=O)[C@@H](NC(=O)CCCCCCNC(=O)C23CC4CC(CC(Cn5ncc(-c6ccc(N7CCc8cccc(C(=O)Nc9nc%10ccccc%10s9)c8C7)nc6C(=O)O)c5C)(C4)C2)C3)C(C)(C)C)cc1 [degrader #43, 6-(8-(benzo[d]thiazol-2-ylcarbamoyl)-3,4-dihydroisoquinolin-2(1H)-yl)-3-(1-(((1S,3r)-3-((7-(((S)-1-((2S,4R)-4-hydroxy-2-(((S)-1-(4-(4-methylthiazol-5-yl)phenyl)ethyl)carbamoyl)pyrrolidin-1-yl)-3,3-dimethyl-1-oxobutan-2-yl)amino)-7-oxoheptyl)carbamoyl)adamantan-1-yl)methyl)-5-methyl-1H-pyrazol-4-yl)picolinic acid]	–
